# Source: patent publication US5431924A, “Anti-inflammatory composition derived from emu oil” (priority 1990, dated 1995)
# System: male polyarthritic hooded rats
# Test: Polyarthritis in male hooded rats: emu oil before and after uv exposure or benzoyl peroxide oxidation, with and without additives (Table 8)
# Details: for anti-inflammatory activity in the rat polyarthritic model: emu oil after exposure to strong ultraviolet light, with or without additive, in words
# [1] = Table 8, dose/kg 2 ml (EO), 20 mg (R.A., B-Carotene), 25 mg (Trolox-DE)
SMILES,anti-inflammatory activity in the rat polyarthritic model,"Mean changes, Thickness Rear Paws, Days 12-16 [1] [mm]","Mean changes, Thickness Rear Paws, Days 16-20 [1] [mm]","Mean changes, Thickness Tail, Days 12-16 [1] [mm]","Mean changes, Thickness Tail, Days 16-20 [1] [mm]","Mean changes, Wt Chge, Days 12-16 [1] [g]","Mean changes, Wt Chge, Days 16-20 [1]"
CC1=C(/C=C/C(C)=C/C=C/C(C)=C/C=C/C=C(C)/C=C/C=C(C)/C=C/C2=C(C)CCCC2(C)C)C(C)(C)CCC1 [β-carotene],anti-inflammatory activity could be restored to the oil by the addition of retinyl acetate but not β-carotene,–,–,–,–,–,–
"CC(=O)OC/C=C(C)/C=C/C=C(C)/C=C/C1=C(C)CCCC1(C)C [R.A. in E-Pg, Retinyl acetate]",anti-inflammatory activity could be restored to the oil,0.16,0.30,-0.12,-0.10,-02,+10 g
